Measurements from PubChem BioAssay (NCI).
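Here, GI50 denotes the concentration required for 50% inhibition of growth. At the TGI there is no net growth.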

Legend:
Assay in all cases: inhibition of tumour cell growth, NCI panel, 384-well format
[1] = tested on: 786-0 renal
[2] = tested on: A498 renal
[3] = tested on: A549 NSCLC
[4] = tested on: ACHN renal
[5] = tested on: BT-549 breast
[6] = tested on: CAKI-1 renal
[7] = tested on: CCRF-CEM leukemia
[8] = tested on: COLO 205 colon
[9] = tested on: DU-145 prostate
[10] = tested on: EKVX NSCLC
[11] = tested on: HCC-2998 colon
[12] = tested on: HCT-15 colon
[13] = tested on: HL-60(TB) leukemia
[14] = tested on: HOP-62 NSCLC
[15] = tested on: HOP-92 NSCLC
[16] = tested on: HS 578T breast
[17] = tested on: HT29 colon
[18] = tested on: IGROV1 ovarian
[19] = tested on: K-562 leukemia
[20] = tested on: KM12 colon
[21] = tested on: LOX IMVI melanoma
[22] = tested on: M14 melanoma
[23] = tested on: MALME-3M melanoma
[24] = tested on: MCF7 breast
[25] = tested on: MDA-MB-231 breast
[26] = tested on: MDA-MB-435 melanoma
[27] = tested on: MDA-MB-468 breast
[28] = tested on: MOLT-4 leukemia
[29] = tested on: NCI-H226 lung
[30] = tested on: NCI-H23 lung
[31] = tested on: NCI-H322M lung
[32] = tested on: NCI-H460 NSCLC
[33] = tested on: NCI-H522 lung
[34] = tested on: NCI/ADR-RES ovarian
[35] = tested on: OVCAR-3 ovarian
[36] = tested on: OVCAR-4 ovarian
[37] = tested on: OVCAR-5 ovarian
[38] = tested on: OVCAR-8 ovarian
[39] = tested on: PC-3 prostate
[40] = tested on: RPMI-8226 leukemia
[41] = tested on: RXF 393 renal
[42] = tested on: SF-268 CNS
[43] = tested on: SF-295 CNS
[44] = tested on: SF-539 CNS
[45] = tested on: SK-MEL-28 melanoma
[46] = tested on: SK-MEL-5 melanoma
[47] = tested on: SK-OV-3 ovarian
[48] = tested on: SN12C renal
[49] = tested on: SNB-19 CNS
[50] = tested on: SNB-75 CNS
[51] = tested on: SR leukemia
[52] = tested on: SW-620 colon
[53] = tested on: T-47D breast
[54] = tested on: TK-10 renal
[55] = tested on: UACC-257 melanoma
[56] = tested on: UACC-62 melanoma
[57] = tested on: UO-31 renal

Cc1cc2ncnn2cc1Nc1ncc2c(n1)n(C1CCOCC1)c(=O)n2C
GI50 [1]: 36.4 µM
TGI [1]: > 100 µM
GI50 [2]: 2.66 µM
TGI [2]: 31.3 µM
GI50 [3]: 12.1 µM
TGI [3]: > 100 µM
GI50 [4]: 21.5 µM
TGI [4]: > 100 µM
GI50 [5]: 24.2 µM
TGI [5]: > 100 µM
GI50 [6]: 16.5 µM
TGI [6]: > 100 µM
GI50 [7]: 3.21 µM
TGI [7]: 17.5 µM
GI50 [8]: 17.1 µM
TGI [8]: > 100 µM
GI50 [9]: 28.8 µM
TGI [9]: > 100 µM
GI50 [10]: 15.6 µM
TGI [10]: > 100 µM
GI50 [11]: 38.2 µM
TGI [11]: > 100 µM
GI50 [12]: 12 µM
TGI [12]: > 100 µM
GI50 [13]: 35.2 µM
TGI [13]: > 100 µM
GI50 [14]: 22.2 µM
TGI [14]: > 100 µM
GI50 [15]: 6.69 µM
TGI [15]: > 100 µM
GI50 [16]: 4.78 µM
TGI [16]: 37.9 µM
GI50 [17]: 32.9 µM
TGI [17]: > 100 µM
GI50 [18]: 4.91 µM
TGI [18]: 32.9 µM
GI50 [19]: > 100 µM
TGI [19]: > 100 µM
GI50 [20]: 18 µM
TGI [20]: > 100 µM
GI50 [21]: 14.4 µM
TGI [21]: > 100 µM
GI50 [22]: 19.3 µM
TGI [22]: > 100 µM
GI50 [23]: 4.21 µM
TGI [23]: 61.9 µM
GI50 [24]: 4.64 µM
TGI [24]: > 100 µM
GI50 [25]: 7.65 µM
TGI [25]: > 100 µM
GI50 [26]: 41.4 µM
TGI [26]: > 100 µM
GI50 [27]: 5.36 µM
TGI [27]: 52.7 µM
GI50 [28]: 5.53 µM
TGI [28]: 33.8 µM
GI50 [29]: 10.5 µM
TGI [29]: > 100 µM
GI50 [30]: 26.5 µM
TGI [30]: > 100 µM
GI50 [31]: 18.8 µM
TGI [31]: > 100 µM
GI50 [32]: 4.88 µM
TGI [32]: > 100 µM
GI50 [33]: 9.5 µM
TGI [33]: > 100 µM
GI50 [34]: > 100 µM
TGI [34]: > 100 µM
GI50 [35]: 14.5 µM
TGI [35]: > 100 µM
GI50 [36]: 8.13 µM
TGI [36]: > 100 µM
GI50 [37]: 11.9 µM
TGI [37]: > 100 µM
GI50 [38]: 50.5 µM
TGI [38]: > 100 µM
GI50 [39]: 8.76 µM
TGI [39]: > 100 µM
GI50 [40]: 1.44 µM
TGI [40]: 3.98 µM
GI50 [41]: 49.6 µM
TGI [41]: > 100 µM
GI50 [42]: > 100 µM
TGI [42]: > 100 µM
GI50 [43]: 6.33 µM
TGI [43]: > 100 µM
GI50 [44]: 58.2 µM
TGI [44]: > 100 µM
GI50 [45]: 22.4 µM
TGI [45]: > 100 µM
GI50 [46]: 15.5 µM
TGI [46]: > 100 µM
GI50 [47]: 6.16 µM
TGI [47]: > 100 µM
GI50 [48]: 10.4 µM
TGI [48]: > 100 µM
GI50 [49]: > 100 µM
TGI [49]: > 100 µM
GI50 [50]: 6.38 µM
TGI [50]: > 100 µM
GI50 [51]: 4.11 µM
TGI [51]: > 100 µM
GI50 [52]: > 100 µM
TGI [52]: > 100 µM
GI50 [53]: 1.7 µM
TGI [53]: 7.63 µM
GI50 [54]: 74.7 µM
TGI [54]: > 100 µM
GI50 [55]: > 100 µM
TGI [55]: > 100 µM
GI50 [56]: 21.2 µM
TGI [56]: > 100 µM
GI50 [57]: > 100 µM
TGI [57]: > 100 µM
